Source: ChEMBL document CHEMBL5042477, “Potent Cyclic Peptide Inhibitors of FXIIa Discovered by mRNA Display with Genetic Code Reprogramming” (J Med Chem, 2021)
Where a SMILES comes first, the peptide text is derived from it. Bridges are numbered along the chain shown (N, C = ends). [ ]: non-standard residue; d: D form. Phe(2-CF3) = N[C@@H](Cc1ccccc1C(F)(F)F)C(=O)O; Phe(4-CN) = N#Cc1ccc(C[C@H](N)C(=O)O)cc1; Phe(2-CN) = N#Cc1ccccc1C[C@H](N)C(=O)O; Phe(2-OMe) = COc1ccccc1C[C@H](N)C(=O)O; Phe(3-Me) = Cc1cccc(C[C@H](N)C(=O)O)c1; hPhe = N[C@@H](CCc1ccccc1)C(=O)O; 2Pal = N[C@@H](Cc1ccccn1)C(=O)O; 4Pal = N[C@@H](Cc1ccncc1)C(=O)O

Biological target: T1, Coagulation factor XII (Homo sapiens, UniProt P00748)
T1 sequence (P00748 whole entry): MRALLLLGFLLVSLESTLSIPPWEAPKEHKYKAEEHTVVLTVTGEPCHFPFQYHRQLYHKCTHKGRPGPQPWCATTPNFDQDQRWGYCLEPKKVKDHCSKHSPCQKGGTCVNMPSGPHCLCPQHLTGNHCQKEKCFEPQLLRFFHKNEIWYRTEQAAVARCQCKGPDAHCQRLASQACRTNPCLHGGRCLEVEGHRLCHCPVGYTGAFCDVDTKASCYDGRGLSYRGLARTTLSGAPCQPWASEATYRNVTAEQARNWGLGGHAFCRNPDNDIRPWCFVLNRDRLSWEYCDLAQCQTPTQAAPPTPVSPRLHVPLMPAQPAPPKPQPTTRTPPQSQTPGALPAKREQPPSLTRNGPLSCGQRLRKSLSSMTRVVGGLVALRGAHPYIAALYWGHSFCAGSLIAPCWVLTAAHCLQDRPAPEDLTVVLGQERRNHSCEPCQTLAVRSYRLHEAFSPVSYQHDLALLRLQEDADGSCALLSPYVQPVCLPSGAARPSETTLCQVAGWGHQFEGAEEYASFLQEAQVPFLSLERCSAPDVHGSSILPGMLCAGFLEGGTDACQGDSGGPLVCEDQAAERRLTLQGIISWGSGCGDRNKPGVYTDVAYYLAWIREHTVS
Test: Inhibition of human factor 12a using H-D-Pro-Phe-Arg-p-nitroanilide as chromogenic substrate assessed as liberation of p-nitroaniline measured every 5 mins for 60 min by multimode plate reader analysis

Q: With `CC(C)C[C@@H]1NC(=O)[C@H](Cc2ccc(O)cc2)NC(=O)CSC[C@@H](C(N)=O)NC(=O)CNC(=O)CNC(=O)[C@H](CCCNC(=N)N)NC(=O)[C@H](CC(=O)O)NC(=O)[C@H](CCCCN)NC(=O)[C@@H]2CCCN2C(=O)[C@H](CCCNC(=N)N)NC(=O)[C@H](Cc2ccc(C#N)cc2)NC(=O)[C@H](CCCNC(=N)N)NC1=O` ({CH2CO}-YLR[Phe(4-CN)]RPKDRGGC-NH2; thioether N-12) as the compound, how does the IC50 read?
A: Its IC50 is 90 nM.

Q: `COc1ccccc1C[C@@H]1NC(=O)CSC[C@@H](C(N)=O)NC(=O)CNC(=O)CNC(=O)[C@H](CCCNC(=N)N)NC(=O)[C@H](CC(=O)O)NC(=O)[C@H](CCCCN)NC(=O)[C@@H]2CCCN2C(=O)[C@H](CCCNC(=N)N)NC(=O)[C@H](Cc2ccccc2)NC(=O)[C@H](CCCNC(=N)N)NC(=O)[C@H](CC(C)C)NC1=O` ({CH2CO}-[Phe(2-OMe)]LRFRPKDRGGC-NH2; thioether N-12) was tested. Which IC50 did it give?
A: Its IC50 is 400000 nM.

Q: `CC(C)C[C@@H]1NC(=O)[C@H](C)NC(=O)[C@H](CC(C)C)NC(=O)[C@H](Cc2ccc(O)cc2)NC(=O)CSC[C@@H](C(N)=O)NC(=O)CNC(=O)CNC(=O)[C@H](CCC(N)=O)NC(=O)[C@H](CC(N)=O)NC(=O)[C@H]([C@@H](C)O)NC(=O)[C@@H]2CCCN2C(=O)[C@H](CCCCN)NC1=O` ({CH2CO}-YLALKPTNQGGC-NH2; thioether N-12) was tested. Which IC50 did it give?
A: Its IC50 is 850000 nM.

Q: `COc1ccc(C[C@@H]2NC(=O)[C@H](CCCNC(=N)N)NC(=O)[C@H](CC(C)C)NC(=O)[C@H](Cc3ccc(O)cc3)NC(=O)CSC[C@@H](C(N)=O)NC(=O)CNC(=O)CNC(=O)[C@H](CCCNC(=N)N)NC(=O)[C@H](CC(=O)O)NC(=O)[C@H](CCCCN)NC(=O)[C@@H]3CCCN3C(=O)[C@H](CCCNC(=N)N)NC2=O)cc1` ({CH2CO}-YLRY(Me)RPKDRGGC-NH2; thioether N-12) was tested. Which IC50 did it give?
A: The IC50 was 560 nM.

Q: With `CC(C)C[C@@H]1NC(=O)[C@H](Cc2ccc(O)cc2)NC(=O)CSC[C@@H](C(N)=O)NC(=O)CNC(=O)CNC(=O)[C@H](CCCNC(=N)N)NC(=O)[C@H](C)NC(=O)[C@H](CCCCN)NC(=O)[C@@H]2CCCN2C(=O)[C@H](CCCNC(=N)N)NC(=O)[C@H](Cc2ccccc2)NC(=O)[C@H](CCCNC(=N)N)NC1=O` ({CH2CO}-YLRFRPKARGGC-NH2; thioether N-12) as the compound, how does the IC50 read?
A: Its IC50 is 50 nM.

Q: For `CC(C)C[C@@H]1NC(=O)[C@H](Cc2ccc(O)cc2)NC(=O)CSC[C@@H](C(N)=O)NC(=O)CNC(=O)CNC(=O)[C@H](CCCNC(=N)N)NC(=O)[C@H](CC(=O)O)NC(=O)[C@H](CCCCN)NC(=O)[C@@H]2CCCN2C(=O)[C@H](CCCNC(=N)N)NC(=O)[C@H](Cc2ccccn2)NC(=O)[C@H](CCCNC(=N)N)NC1=O` ({CH2CO}-YLR[2Pal]RPKDRGGC-NH2; thioether N-12), which IC50 is on record?
A: Its IC50 is 96 nM.

Q: With `CC(C)C[C@@H]1NC(=O)[C@H](Cc2ccncc2)NC(=O)CSC[C@@H](C(N)=O)NC(=O)CNC(=O)CNC(=O)[C@H](CCCNC(=N)N)NC(=O)[C@H](CC(=O)O)NC(=O)[C@H](CCCCN)NC(=O)[C@@H]2CCCN2C(=O)[C@H](CCCNC(=N)N)NC(=O)[C@H](Cc2ccccc2)NC(=O)[C@H](CCCNC(=N)N)NC1=O` ({CH2CO}-[4Pal]LRFRPKDRGGC-NH2; thioether N-12) as the compound, how does the IC50 read?
A: The IC50 was 12000 nM.

Q: Which IC50 does the source give for `CC(C)C[C@@H]1NC(=O)[C@H](Cc2ccc(O)cc2)NC(=O)CSC[C@@H](C(N)=O)NC(=O)CNC(=O)CNC(=O)[C@H](CCCNC(=N)N)NC(=O)[C@H](CC(=O)O)NC(=O)[C@H](CCCCN)NC(=O)[C@@H]2CCCN2C(=O)[C@H](CCCCN)NC(=O)[C@H](Cc2ccccc2)NC(=O)[C@H](CCCNC(=N)N)NC1=O` ({CH2CO}-YLRFKPKDRGGC-NH2; thioether N-12) here?
A: Its IC50 is 65 nM.

Q: Which IC50 does the source give for `CC(C)C[C@@H]1NC(=O)[C@H](Cc2ccc(O)cc2)NC(=O)CSC[C@@H](C(N)=O)NC(=O)CNC(=O)CNC(=O)[C@H](CCCNC(=N)N)NC(=O)[C@H](CC(=O)O)NC(=O)[C@H](CCCCN)NC(=O)[C@@H]2CCCN2C(=O)[C@H](CCCNC(=N)N)NC(=O)[C@H](CCc2ccccc2)NC(=O)[C@H](CCCNC(=N)N)NC1=O` ({CH2CO}-YLR[hPhe]RPKDRGGC-NH2; thioether N-12) here?
A: The IC50 was 740 nM.

Q: How did the IC50 turn out when `CC(C)C[C@@H]1NC(=O)[C@H](Cc2ccc(O)cc2)NC(=O)CSC[C@@H](C(N)=O)NC(=O)CNC(=O)CNC(=O)[C@H](CCC(N)=O)NC(=O)[C@H](CC(N)=O)NC(=O)[C@H]([C@@H](C)O)NC(=O)[C@H](C)NC(=O)[C@H](CCCCN)NC(=O)[C@H](CC(C)C)NC(=O)[C@H](CCCNC(=N)N)NC1=O` ({CH2CO}-YLRLKATNQGGC-NH2; thioether N-12) was run?
A: The IC50 was 2300 nM.

Q: For `CC(C)C[C@@H]1NC(=O)[C@H](Cc2ccc(C#N)cc2)NC(=O)CSC[C@@H](C(N)=O)NC(=O)CNC(=O)CNC(=O)[C@H](CCCNC(=N)N)NC(=O)[C@H](CC(=O)O)NC(=O)[C@H](CCCCN)NC(=O)[C@@H]2CCCN2C(=O)[C@H](CCCNC(=N)N)NC(=O)[C@H](Cc2ccccc2)NC(=O)[C@H](CCCNC(=N)N)NC1=O` ({CH2CO}-[Phe(4-CN)]LRFRPKDRGGC-NH2; thioether N-12), which IC50 is on record?
A: Its IC50 is 8100 nM.

Q: How did the IC50 turn out when `CC(C)C[C@@H]1NC(=O)[C@H](Cc2ccccn2)NC(=O)CSC[C@@H](C(N)=O)NC(=O)CNC(=O)CNC(=O)[C@H](CCCNC(=N)N)NC(=O)[C@H](CC(=O)O)NC(=O)[C@H](CCCCN)NC(=O)[C@@H]2CCCN2C(=O)[C@H](CCCNC(=N)N)NC(=O)[C@H](Cc2ccccc2)NC(=O)[C@H](CCCNC(=N)N)NC1=O` ({CH2CO}-[2Pal]LRFRPKDRGGC-NH2; thioether N-12) was run?
A: Its IC50 is 11000 nM.

Q: Which IC50 does the source give for `CC(C)C[C@@H]1NC(=O)[C@H](Cc2ccc(O)cc2)NC(=O)CSC[C@@H](C(N)=O)NC(=O)CNC(=O)CNC(=O)[C@H](CCCNC(=N)N)NC(=O)[C@H](CC(=O)O)NC(=O)[C@H](CCCCN)NC(=O)[C@@H]2CCCN2C(=O)[C@H](CCCNC(=N)N)NC(=O)[C@H](Cc2ccccc2C#N)NC(=O)[C@H](CCCNC(=N)N)NC1=O` ({CH2CO}-YLR[Phe(2-CN)]RPKDRGGC-NH2; thioether N-12) here?
A: The IC50 was 120 nM.

Q: `Cc1cccc(C[C@@H]2NC(=O)[C@H](CCCNC(=N)N)NC(=O)[C@H](CC(C)C)NC(=O)[C@H](Cc3ccc(O)cc3)NC(=O)CSC[C@@H](C(N)=O)NC(=O)CNC(=O)CNC(=O)[C@H](CCCNC(=N)N)NC(=O)[C@H](CC(=O)O)NC(=O)[C@H](CCCCN)NC(=O)[C@@H]3CCCN3C(=O)[C@H](CCCNC(=N)N)NC2=O)c1` ({CH2CO}-YLR[Phe(3-Me)]RPKDRGGC-NH2; thioether N-12) was tested. Which IC50 did it give?
A: Its IC50 is 73 nM.

Q: `CC(C)C[C@@H]1NC(=O)[C@H](Cc2ccc(O)cc2)NC(=O)CSC[C@@H](C(N)=O)NC(=O)CNC(=O)CNC(=O)[C@H](CCCNC(=N)N)NC(=O)[C@H](CC(=O)O)NC(=O)[C@H](CCCCN)NC(=O)[C@@H]2CCCN2C(=O)[C@H](CCCNC(=N)N)NC(=O)[C@H](Cc2ccc(O)cc2)NC(=O)[C@H](CCCNC(=N)N)NC1=O` ({CH2CO}-YLRYRPKDRGGC-NH2; thioether N-12) was tested. Which IC50 did it give?
A: Its IC50 is 260 nM.

Q: `CC(C)C[C@@H]1NC(=O)[C@H](Cc2ccc(O)cc2)NC(=O)CSC[C@@H](C(N)=O)NC(=O)CNC(=O)CNC(=O)[C@H](CCCNC(=N)N)NC(=O)[C@H](CC(=O)O)NC(=O)[C@H](CCCCN)NC(=O)[C@@H]2CCCN2C(=O)[C@H](CCCNC(=N)N)NC(=O)[C@H](Cc2ccccc2C(F)(F)F)NC(=O)[C@H](CCCNC(=N)N)NC1=O` ({CH2CO}-YLR[Phe(2-CF3)]RPKDRGGC-NH2; thioether N-12) was tested. Which IC50 did it give?
A: Its IC50 is 42 nM.
